The test concerns bacterial populations native to the test sample. As to the kind of experiment: Minimum inhibitory concentration screen of biocides under anaerobic conditions (pH indicator dye). It counts as cell-based. To be noted: pH 6.5, read-out: Minimum Inhibitory Concentration. An excerpt:
A few exemplary biocides or a combination of one or more quaternary ammonium compounds with one additional biocide were investigated for their ability to inhibit microorganism growth. The method used to generate the data in Table 1 was based on methods for identifying the minimum inhibitory concentration of biocides or biocidal agents for use in anaerobically contaminated aqueous system as disclosed in the patent publication WO9934013A1 by Schwingel, et. al.
The method was a test assay used to rapidly screen antimicrobial agents against bacterial populations native to the test sample under anaerobic conditions. The assay utilized a pH indicator dye which is red at pH levels above 6.5 and yellow below pH 6.5. During fermentation under anaerobic conditions, volatile fatty acids were produced, which lowered the pH of the system. In the test wells, the accumulation of volatile fatty acids from actively growing and fermenting microorganisms lowered the pH causing the indicator dye to turn yellow. […]
When the control sample had turned yellow due to active fermentation and acid production, all samples were examined for color change, and the Minimum Inhibitory Concentration (MIC) values recorded. […] Because MIC values change with extended contact time, it was important to read the MIC values within 2-3 hours of the control wells turning yellow. […]

Our source for the MIC values is patent US11844349B2, “Anti-microbial agent to control biomass accumulation in SO2 scrubbers” (ECOLAB USA INC., priority 2016, dated 2023).

With `CN1CSC(=S)N(C)C1` [3,5-dimethyl-tetrahydro-2H-1,3,5-thiadiazine-2-thione], the MIC came out at 26.2 µg/mL. Next, `N#CSCSC#N` [Methylenebisthiocyanate]: 0.8 to 1.6 µg/mL.
